Here are results for one compound from US20060167109A1, “Methods of reducing rhinovirus contagion and related compositions” (priority 2002, published 2006).

One data set concerns HRV serotype 91. In words: HRV cytopathic effect assay. Conditions: Human rhinovirus sp. It is filed as cell-based.
In another data set the test system is HRV serotype 85. In words: HRV cytopathic effect assay. As to conditions: Human rhinovirus sp. It is filed as cell-based.
A further data set relates to HRV serotype 69. Briefly: HRV cytopathic effect assay. Conditions: Human rhinovirus sp. It is filed as cell-based.
The subject of a further data set is HRV-3. In words: Attachment inhibition, 35S-radiolabeled virus. Format: cell-based, human rhinovirus. Conditions: HRV-3, ICAM-1 receptor, FIG. 5. How it is done:
(§1) The ability of pleconaril to affect the attachment to cells of several HRV serotypes was examined. ^35S-radiolabeled virus was incubated with susceptible cells for 1 hour in the presence of various concentrations of pleconaril. Cell-associated virus was quantified by direct scintillation counting of cell lysates after removal of unbound virus.
(§2) ^35S-radiolabeled virus was preincubated with various concentrations of pleconaril or 0.5% DMSO alone for 1 hour at room temperature. Cells in 6 well plates were inoculated with 20,000 cpm of ^35S-radiolabeled virus/well in 0.5 mL of M199 medium with 5% FBS. Attachment was allowed to proceed for 1 hour at 33° C., at which time the inoculum was removed and the cells washed with 2 mL of medium. The cells were then lysed by a 15 minute incubation on ice in the presence of 250 μL/well of a solution containing detergent 1% Nonident P40 (NP40) and 20 mM chelator, ethylene diamine tetraacetic acid (EDTA) in water. Cell-associated radioactivity was quantified by liquid scintillation spectroscopy in a Wallac Model 1409 Liquid Scintillation Counter (Wallac Oy, Turku, Finland).

The test system of a further data set is HRV-14. Briefly: Attachment inhibition, 35S-radiolabeled virus. It is filed as cell-based, human rhinovirus. Conditions: HRV-14, ICAM-1 receptor, FIG. 5. How it is done: as §1, §2
The subject of a further data set is HRV-89. In words: Attachment inhibition, 35S-radiolabeled virus. Format: cell-based, human rhinovirus. Conditions: HRV-89, ICAM-1 receptor, FIG. 5. As to the method: as §1, §2
The next data set deals with HRV-2. In words: Attachment inhibition, 35S-radiolabeled virus. Format: cell-based, human rhinovirus. As to conditions: HRV-2, LDL receptor, HeLa cells. As to the method:
as §1, §2

The next data set deals with HRV-50. In words: Attachment inhibition, 35S-radiolabeled virus. Format: cell-based, human rhinovirus. Conditions: HRV-50, ICAM-1 receptor, FIG. 5. As to the method: as §1, §2
The next data set relates to HRV-1A. Briefly: Attachment inhibition, 35S-radiolabeled virus. Format: cell-based, human rhinovirus. Conditions: LDL receptor, HeLa cells. As to the method: as §1, §2
The nature of the next data set: log P. Format: physicochemical.

In the case of `Cc1cc(CCCOc2c(C)cc(-c3noc(C(F)(F)F)n3)cc2C)on1` [pleconaril, 3-[3,5-dimethyl-4-[3-(3-methyl-5-isoxazolyl)propoxy]phenyl]-5-(trifluoromethyl)-1,2,4-oxadiazole], the figures for the IC50 with HRV serotype 91, in the data set on HRV serotype 85 and with HRV serotype 69 were 0.73 ± 0.39 µM, 0.05 ± 0.02 µM and 6.77 ± 3.14 µM, respectively. The “attachment of virus to cells” value in the data set on HRV-3 is listed as “inhibited”; with HRV-14, “inhibited”; with HRV-89, “inhibited”; in the data set on HRV-2, “able to bind to HeLa cells normally”; with HRV-50 it was “inhibited”; in the data set on HRV-1A, “able to bind to HeLa cells normally”. For the same compound, the “log P” value in “log P” was “high”.
